Counter-ions that a name gives are not always drawn.
Tests used:
[1] = tested on: L. mexicana amastigote; format: cell-based; conditions: Leishmania mexicana, J774.A1, read-out: inhibition at 0.1 μM vs L. mexicana
[2] = In vitro metabolic stability in mouse liver microsomes; format: in vitro ADME; conditions: 1 μM; 0.5 mg/mL microsomes; up to 60 min
[3] = tested on: Plasmodium yoelli; assay: Plasmodium yoelli infection in mice; format: in vivo; conditions: unpublished results
[4] = In vitro metabolic stability in human liver microsomes; format: in vitro ADME; conditions: 1 μM; 0.5 mg/mL microsomes; up to 60 min
[5] = tested on: Salmonella typhimurium TA100 and TA98; assay: Ames mutagenicity assay; format: cell-based; conditions: up to 10 μM, with and without S9
[6] = tested on: L. mexicana; assay: In vivo efficacy, murine model of cutaneous leishmaniasis; set-up: species or system BALB/c mice; conditions: oral gavage 40–60 mg/kg/d for 10 days

SMILES	metabolic stability (t1/2, min) vs MLM [2]	metabolic stability (t1/2, min) vs HLM [4]	inhibition of growth at 0.1 µM [1]	efficacy in curing Plasmodium yoelli infections in mice [3]	Ames mutagenicity result [5]	in vivo efficacy compared with the other TAs tested [6]
COC1=CC(c2ccc[nH]2)=N/C1=C\Nc1ccccc1OC(F)(F)F [compound 59, (Z)-N-((4'-Methoxy-1H,5'H-[2,2'-bipyrrol]-5'-ylidene)methyl)-2-(trifluoromethoxy)aniline Hydrochloride]	–	–	~30%	–	–	–
CCC1=C(CC)/C(=C/N[C@H]2CC[C@H](C)CC2)N=C1c1ccc[nH]1.Cl [compound 95, (1r,4r)-N-((Z)-(3',4'-Diethyl-1H,5'H-[2,2'-bipyrrol]-5'-ylidene)methyl)-4-methylcyclohexan-1-amine Hydrochloride]	37.5 min	23.3 min	–	strong efficacy	–	–
C(/NC1CCCCC1)=C1/N=C(c2ccc[nH]2)C2=C1CCCC2.Cl [compound 101, (Z)-N-((3-(1H-Pyrrol-2-yl)-4,5,6,7-tetrahydro-1H-isoindol-1-ylidene)methyl)cyclohexanamine Hydrochloride]	33.0 min	26.7 min	–	strong efficacy	–	–
CCc1ccc(C2=N/C(=C\NC3CCCCCC3)C(C)=C2C)[nH]1.Cl [compound 110, (Z)-N-((5-Ethyl-3',4'-dimethyl-1H,5'H-[2,2'-bipyrrol]-5'-ylidene)methyl)cycloheptanamine Hydrochloride]	> 60.0 min	> 60.0 min	–	strong efficacy	negative	greater efficacy than both 95 and 101
COC1=CC(c2ccc(Cc3ccc(OC)cc3)[nH]2)=N/C1=C\NC1CCCCCC1.Cl [compound 121, (Z)-N-((4'-Methoxy-5-(4-methoxybenzyl)-1H,5'H-[2,2'-bipyrrol]-5'-ylidene)methyl)cycloheptanamine Hydrochloride]	14.8 min	25.6 min	–	–	–	–

Now from value to molecule, other results behind:

metabolic stability (t1/2, min) vs MLM [2]	metabolic stability (t1/2, min) vs HLM [4]	SMILES	inhibition of growth at 0.1 µM [1]	efficacy in curing Plasmodium yoelli infections in mice [3]	Ames mutagenicity result [5]	in vivo efficacy compared with the other TAs tested [6]
16.5 min	50.8 min	COC1=CC(c2ccc(Cc3ccc(OC)cc3)[nH]2)=N/C1=C\NC1CCCCCCC1.Cl [compound 122, (Z)-N-((4'-Methoxy-5-(4-methoxybenzyl)-1H,5'H-[2,2'-bipyrrol]-5'-ylidene)methyl)cyclooctanamine Hydrochloride]	–	–	–	–
> 60.0 min	> 60.0 min	COC1=CC(c2ccc(Cc3ccc(OC)cc3)[nH]2)=N/C1=C\NC12CC3CC(CC(C3)C1)C2.Cl [compound 123, (3s,5s,7s)-N-((Z)-(4'-Methoxy-5-(4-methoxybenzyl)-1H,5'H-[2,2'-bipyrrol]-5'-ylidene)methyl)adamantan-1-amine Hydrochloride]	–	–	–	–
